This test addresses Peptidyl-prolyl cis-trans isomerase FKBP1A (Homo sapiens, UniProt P62942, F36V). In words: Binding affinity for Mutant F36V-FK506 binding protein by competitive assay based on fluorescence polarization.

Chain of Peptidyl-prolyl cis-trans isomerase FKBP1A (P62942 2-108 F37V limits assumed): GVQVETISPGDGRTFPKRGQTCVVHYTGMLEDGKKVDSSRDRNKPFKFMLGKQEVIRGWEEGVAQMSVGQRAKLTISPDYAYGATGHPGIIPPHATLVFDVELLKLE

Take `CCC[C@H](C(=O)N1CCCC[C@H]1C(=O)OC(CCc1ccc(OC)c(OC)c1)c1cccc(OCC(=O)O)c1)c1cc(OC)c(OC)c(OC)c1` (stereo partly drawn): the IC50 was found to be 3.8 nM.
Molecule `CC[C@@H](C(=O)N1CCCC[C@H]1C(=O)OC(CCc1ccc(OC)c(OC)c1)c1cccc(OCC(=O)O)c1)c1cc(OC)c(OC)c(OC)c1` (stereo partly drawn) came in with a half-maximal inhibitory concentration (IC50) of 187 nM. This IC50 lies about 49-fold higher than the previous one.
`COc1ccc(CCC(OC(=O)[C@@H]2CCCCN2C(=O)[C@@H](C)c2ccccc2)c2cccc(OCC(=O)O)c2)cc1OC` (stereo partly drawn): the half-maximal inhibitory concentration (IC50) is 94 nM. This IC50 lies about 2-fold lower than the previous one.
Under `COc1ccc(CC[C@@H](OC(=O)[C@@H]2CCCCN2C(=O)Cc2ccccc2)c2cccc(OCC(=O)O)c2)cc1OC` stands 1530 nM; under `COc1ccc(CCC(OC(=O)[C@@H]2CCCCN2C(=O)[C@@H](CC2CC2)c2cc(OC)c(OC)c(OC)c2)c2cccc(OCC(=O)O)c2)cc1OC` (stereo partly drawn), 4.4 nM.
For `CC[C@@H](C(=O)N1CCCC[C@H]1C(=O)OC(CCc1ccc(OC)c(OC)c1)c1cccc(OCC(=O)O)c1)c1ccccc1` (stereo partly drawn) the value was 133 nM.
`CC[C@H](C(=O)N1CCCC[C@H]1C(=O)O[C@H](CCc1ccc(OC)c(OC)c1)c1cccc(OCC(=O)O)c1)c1ccccc1` had an IC50 of 40 nM.
`COc1ccc(CCC(OC(=O)[C@@H]2CCCCN2C(=O)[C@H](C)c2ccccc2)c2cccc(OCC(=O)O)c2)cc1OC` (stereo partly drawn) registered a concentration for half-maximal inhibition (IC50) of 590 nM. This IC50 is about 15-fold higher than that of the molecule before.
Under `C=CC[C@H](C(=O)N1CCCC[C@H]1C(=O)OC(CCc1ccc(OC)c(OC)c1)c1cccc(OCC(=O)O)c1)c1cc(OC)c(OC)c(OC)c1` (stereo partly drawn) stands 1.5 nM; under `CC[C@H](C(=O)N1CCCC[C@H]1C(=O)O[C@H](CCc1ccc(OC)c(OC)c1)c1cccc(OCC(=O)O)c1)c1cc(OC)c(OC)c(OC)c1`, 1.8 nM.
For `COc1ccc(CCC(OC(=O)[C@@H]2CCCCN2C(=O)[C@H](c2ccccc2)C(C)C)c2cccc(OCC(=O)O)c2)cc1OC` (stereo partly drawn) the value was 150 nM; for `COc1ccc(CCC(OC(=O)[C@@H]2CCCCN2C(=O)[C@H](CC2CC2)c2cc(OC)c(OC)c(OC)c2)c2cccc(OCC(=O)O)c2)cc1OC` (stereo partly drawn), 126 nM.
For `COc1ccc(CCC(OC(=O)[C@@H]2CCCCN2C(=O)C(c2ccccc2)c2ccccc2)c2cccc(OCC(=O)O)c2)cc1OC` (stereo partly drawn) the value was 273 nM.
With `CCC[C@@H](C(=O)N1CCCC[C@H]1C(=O)OC(CCc1ccc(OC)c(OC)c1)c1cccc(OCC(=O)O)c1)c1cc(OC)c(OC)c(OC)c1` (stereo partly drawn), the IC50 is 43 nM.
For `COc1ccc(CCC(OC(=O)[C@@H]2CCCCN2C(=O)[C@@H](c2ccccc2)C(C)C)c2cccc(OCC(=O)O)c2)cc1OC` (stereo partly drawn) the value was 19 nM.
Under `COc1ccc(CCC(OC(=O)[C@@H]2CCCCN2C(=O)[C@H](c2cc(OC)c(OC)c(OC)c2)C(C)C)c2cccc(OCC(=O)O)c2)cc1OC` (stereo partly drawn) stands 5.8 nM; under `COc1ccc(CCC(OC(=O)[C@@H]2CCCCN2C(=O)[C@@H](c2cc(OC)c(OC)c(OC)c2)C(C)C)c2cccc(OCC(=O)O)c2)cc1OC` (stereo partly drawn), 65 nM; under `C=CC[C@@H](C(=O)N1CCCC[C@H]1C(=O)OC(CCc1ccc(OC)c(OC)c1)c1cccc(OCC(=O)O)c1)c1cc(OC)c(OC)c(OC)c1` (stereo partly drawn), 19 nM.

The values are drawn from ChEMBL document CHEMBL1132977 (J Med Chem, 2000).
